# Assay results: US11332470B2, “CXCR4 inhibitors and uses thereof” (X4 Pharmaceuticals, Inc., priority 2016, dated 2022)
# What was measured:
# [1] = target: T1, CXCR4 (Jurkat cells expressing CXCR4) (Homo sapiens, UniProt P61073); experiment: Chemokine (CXCL12-AF647) binding inhibition assay; details: CXCL12-AF647 25 ng/mL, read-out: IC50 CXCL-12 binding Jurkat
# T1 construct: Jurkat cells expressing CXCR4; endogenous in cells; host or cells: Jurkat
# Experimental: Chemokine (CXCL12-AF647) Binding Inhibition Assay
# Jurkat cells expressing CXCR4 were washed once with assay buffer (Hanks' balanced salt solution with 20 mM HEPES buffer and 0.2% bovine serum albumin, pH 7.4) and then incubated for 15 min at room temperature with the test compounds diluted in assay buffer at dose-dependent concentrations. Subsequently, CXCL12-AF647 (25 ng/mL) was added to the compound-incubated cells. The cells were incubated for 30 min at room temperature. Thereafter, the cells were washed twice in assay buffer, fixed in 1% paraformaldehyde in PBS, and analyzed on the FL4 channel of a FACSCalibur flow cytometer equipped with a 635-nm red diode laser (Becton Dickinson, San Jose, Calif., USA).
# The percentages of inhibition of CXCL12-AF647 binding were calculated according to the formula: [1−((MFI−MFINC)/(MFIPC−MFINC))]×100 where MFI is the mean fluorescence intensity of the cells incubated with CXCL12-AF647 in the presence of the inhibitor, MFINC is the mean fluorescence intensity measured in the negative control (i.e., autofluorescence of unlabeled cells), and MFIPC is the mean fluorescence intensity of the positive control (i.e., cells exposed to CXCL12-AF647 alone).
# [2] = target: T2, CXCR4 (U87.CXCR4 cells) (Homo sapiens, UniProt P61073); experiment: Intracellular CXCL-12-induced calcium mobilization assay (FLIPR); format: cell-based; details: CXCL-12 25-50 ng/mL, read-out: IC50 CXCL-12 Ca2+ flux U87.CXCR4+
# T2 construct: expressed in transfected cells; host or cells: U87 (U87.CXCR4)
# T2 sequence (P61073 whole entry): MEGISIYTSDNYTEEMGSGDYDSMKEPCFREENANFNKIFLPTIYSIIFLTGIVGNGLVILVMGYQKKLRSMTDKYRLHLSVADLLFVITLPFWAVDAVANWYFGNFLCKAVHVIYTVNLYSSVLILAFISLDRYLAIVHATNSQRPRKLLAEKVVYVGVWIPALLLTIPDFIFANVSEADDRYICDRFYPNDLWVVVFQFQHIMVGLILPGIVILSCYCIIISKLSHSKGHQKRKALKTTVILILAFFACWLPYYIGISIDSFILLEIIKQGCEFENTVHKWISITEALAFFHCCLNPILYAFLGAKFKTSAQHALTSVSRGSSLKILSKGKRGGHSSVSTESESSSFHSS
# Experimental: Intracellular CXCL-12-Induced Calcium Mobilization Assay
# Intracellular calcium mobilization induced by chemokines or chemokine-derived peptides were evaluated using a calcium responsive fluorescent probe and a FLIPR system. The CXCR-4 transfected U87 cell line (U87.CXCR4) cells were seeded in gelatine-coated black-wall 96-well plates at 20,000 cells per well and incubated for 12 hours. Cells were then loaded with the fluorescent calcium probe Fluo-2 acetoxymethyl at 4 μM final concentration in assay buffer (Hanks' balanced salt solution with 20 mM HEPES buffer and 0.2% bovine serum albumin, pH 7.4) for 45 min at 37° C. The intracellular calcium mobilization induced by the CXCL-12 (25-50 ng/mL) was then measured at 37° C. by monitoring the fluorescence as a function of time in all the wells simultaneously using a fluorometric imaging plate reader (FLIPR Tetra, Molecular Devices).
# [3] = in vitro; details: human, Caco-2, pH 7.4
# Experimental: The goal of this assay was to evaluate the intestinal absorption potential of drug candidates using Caco-2 cell lines.
# 1. Prewarm Prewarm HBSS Buffer in 37° C. water bath
# 2. Sonicate Take compounds from −20° C., sonicate for a few minutes (no less than 1 minute)
# • Donor solution buffer: For A-to-B Direction: HBSS buffer with 0.3% DMSO and 5 μM LY: add 150 μL DMSO and 50 μL LY (5 mM) into 50 ml HBSS buffer (pH 7.4). HBSS buffer with 0.1% DMSO and 5 μM LY: add 50 μL DMSO and 50 μL LY (5 mM) into 50 mL HBSS buffer (pH 7.4). For B-to-A Direction: HBSS buffer with 0.3% DMSO: add 150 μL DMSO into 50 ml HBSS buffer (pH 7.4). HBSS buffer with 0.1% DMSO: add 50 μL DMSO into 50 ml HBSS buffer (pH 7.4). Receiver Solution Buffer: For A-to-B Direction: Prepare HBSS buffer with 0.4% DMSO: add 200 μL DMSO into 50 ml HBSS buffer (pH 7.4). For B-to-A Direction: Prepare HBSS buffer with 0.4% DMSO and 5 μM LY: add 200 μL DMSO and 50 μL LY (5 mM) into 50 ml HBSS buffer (pH 7.4).
# 4. Measure TEER Take cell culture plate out of incubator, wash the cell monolayers with HBSS buffer, and then measure TEER values at Rm temperature. 5. Centrifuge Centrifuge the compound solution (from step 3) at 4000 rpm for 5 min before loading to donor chambers. 6. Dosing Add solution based on the volumes listed in the following table (make sure to take extra 100 μL of donor sample for TO as Backup).
# 7. Apical LYT0 samples To determine LY concentration in the apical chamber, take 100 μL sample from apical chambers into an opaque plate for LYT0. 8. Prewarm Prewarm apical and basolateral plates at 37° C. for about 5 min, then begin transport by placing the apical plate onto basolateral plate. 9. Incubation Keep the plates in incubator at 37° C. for 90 min. 10.
# Prepare Working Solution in MeOH/H2O (1:1)
# • Prepare 1×solution: 3 μL (20×)+57 μL of 0.4% DMSO HBSS+60 μL ACN with IS (Osalmid or Imipramine)−120 μL (1×) 11. Transport termination Separate the apical plate from the basolateral plate after 90-min incubation. 12. Measure LY Take 100 μL samples from basolateral plate to an opaque plate as LYT90. 13. Measure LY concentrations for LYT0 and LYT90 by Fluorometer (at excitation of 485 nm/emission of 535 nm). 14.
# Study details: Test concentration 10 μM
# Test systems: Caco-2/HBSS solution
# Incubation conditions: 0, 90 min at 37° C.
# Sample size: Duplicates (n=2)
# Bioanalytical method: LC-MS/MS
# For Millicell-24 Cell Culture Plates: surface area of the membrane=0.7 cm^2, VA=0.8 mL (A-to-B) or 0.4 mL (B-to-A)
# The compound numbers correspond to the compound numbers in Table 1.
# T1 sequence (P61073 whole entry): as above
smiles,measurement,setting,value
Cc1cccnc1C1CCCN1Cc1cccc(CC2CCN(C)CC2)n1 (stereo not shown) [Compound I-116],IC50,[1],≥ 1 µM
same,IC50,[2],≥ 1 µM
CN1CCN(c2cccc3[nH]c(CN4CCCC4c4nccn4C)nc23)CC1 (stereo not shown) [Compound I-51],"Papp A→B at 90 min, 10 μM",[3],0.1 to 10 ×10⁻⁶ cm/s
same,"Papp B→A at 90 min, 10 μM",[3],10 to 30 ×10⁻⁶ cm/s
same,"efflux ratio at 90 min, 10 μM",[3],0.1 to 10
same,IC50,[1],0.1 to 1 µM
same,IC50,[2],≥ 1 µM
Cc1cccnc1C1CCCN1Cc1cc2c(N3CCN(C)CC3)cccc2o1 (stereo not shown) [Compound I-73],IC50,[1],0.1 to 1 µM
same,IC50,[2],≥ 1 µM
Cc1cccnc1C1CCCN1Cc1nc2c(N3CCN(C)CC3)cccc2o1 (stereo not shown) [Compound I-72],IC50,[1],≥ 1 µM
same,IC50,[2],≥ 1 µM
"Cc1cccnc1C1CCCCN1Cc1cn2c(N3CCN(C)CC3)cccc2n1 (stereo not shown) [Compound I-1, 5-(4-methylpiperazin-1-yl)-2-((2-(3-methylpyridin-2-yl)piperidin-1-yl)methyl)imidazo[1,2-a]-pyridine]","Papp A→B at 90 min, 10 μM",[3],0.1 to 10 ×10⁻⁶ cm/s
same,"Papp B→A at 90 min, 10 μM",[3],10 to 30 ×10⁻⁶ cm/s
same,"efflux ratio at 90 min, 10 μM",[3],0.1 to 10
same,IC50,[1],1e-05 to 0.1 µM
same,IC50,[2],0.1 to 1 µM
Cc1cccnc1C1CCCN1Cc1nccn1CC1CCN(c2ccccn2)CC1 (stereo not shown) [Compound I-109],"Papp A→B at 90 min, 10 μM",[3],> 30 ×10⁻⁶ cm/s
same,"Papp B→A at 90 min, 10 μM",[3],> 30 ×10⁻⁶ cm/s
same,"efflux ratio at 90 min, 10 μM",[3],0.1 to 10
same,IC50,[1],0.1 to 1 µM
same,IC50,[2],≥ 1 µM
c1ccc(C2CCCN2Cc2nc3ccccn3c2COc2cccnc2)nc1 (stereo not shown) [Compound I-95],IC50,[1],≥ 1 µM
same,IC50,[2],≥ 1 µM
CN1CCN(C(=O)c2c(CN3CCCC3c3ccccn3)nc3ccccn23)CC1 (stereo not shown) [Compound I-123],"Papp A→B at 90 min, 10 μM",[3],0.1 to 10 ×10⁻⁶ cm/s
same,"Papp B→A at 90 min, 10 μM",[3],10 to 30 ×10⁻⁶ cm/s
same,"efflux ratio at 90 min, 10 μM",[3],0.1 to 10
same,IC50,[1],0.1 to 1 µM
same,IC50,[2],≥ 1 µM
N#CCCc1cccc2nc(CN3CCCC3c3ccccn3)cn12 (stereo not shown) [Compound I-84],"Papp A→B at 90 min, 10 μM",[3],0.1 to 10 ×10⁻⁶ cm/s
same,"Papp B→A at 90 min, 10 μM",[3],> 30 ×10⁻⁶ cm/s
same,"efflux ratio at 90 min, 10 μM",[3],0.1 to 10
same,IC50,[1],≥ 1 µM
same,IC50,[2],≥ 1 µM
"Cc1cccnc1C1CCCN1Cc1nc2cccc(N3CCN(C)CC3)n2c1Br (stereo not shown) [Compound I-7, 3-bromo-5-(4-methylpiperazin-1-yl)-2-((2-(3-methylpyridin-2-yl)pyrrolidin-1-yl)methyl)imi-dazo[1,2-a]pyridine]","Papp A→B at 90 min, 10 μM",[3],0.1 to 10 ×10⁻⁶ cm/s
same,"Papp B→A at 90 min, 10 μM",[3],10 to 30 ×10⁻⁶ cm/s
same,"efflux ratio at 90 min, 10 μM",[3],0.1 to 10
same,IC50,[1],0.1 to 1 µM
same,IC50,[2],0.1 to 1 µM
CN1CCC(n2ccnc2CN2CCCC2c2ccccn2)CC1 (stereo not shown) [Compound I-55],"Papp A→B at 90 min, 10 μM",[3],0.1 to 10 ×10⁻⁶ cm/s
same,"Papp B→A at 90 min, 10 μM",[3],10 to 30 ×10⁻⁶ cm/s
same,"efflux ratio at 90 min, 10 μM",[3],0.1 to 10
same,IC50,[1],0.1 to 1 µM
same,IC50,[2],≥ 1 µM
"CN1CCN(c2cccc3[nH]c(C4CCCN4Cc4ccccc4-n4cccn4)nc23)CC1 (stereo not shown) [Compound I-5, 2-(1-(2-(1H-pyrazol-1-yl)benzyl)pyrrolidin-2-yl)-7-(4-methylpiperazin-1-yl)-1H-benzo[d]imidazole]",IC50,[1],≥ 1 µM
same,IC50,[2],≥ 1 µM
"CN1CCN(c2cccc3nc(C4CCCCN4Cc4ccccc4-n4cccn4)[nH]c23)CC1 (stereo not shown) [Compound I-3, 2-(1-(2-(1H-pyrazol-1-yl)benzyl)piperidin-2-yl)-7-(4-methylpiperazin-1-yl)-1H-benzo[d]imidazole]",IC50,[1],≥ 1 µM
same,IC50,[2],≥ 1 µM
Cc1cccnc1CN1CCCC1c1cn2c(N3CCN(CC(F)(F)F)CC3)cccc2n1 (stereo not shown) [Compound I-129],IC50,[1],≥ 1 µM
same,IC50,[2],≥ 1 µM
Cc1cccnc1CN1CCCC1c1nc2ccccc2n1C1CCN(C)CC1 (stereo not shown) [Compound I-77],IC50,[1],1e-05 to 0.1 µM
same,IC50,[2],≥ 1 µM
Cc1cccnc1C1CCCN1Cc1cccc(C(=O)Nc2ccncc2)n1 (stereo not shown) [Compound I-90],IC50,[1],0.1 to 1 µM
same,IC50,[2],≥ 1 µM
CN1CCC(n2c(C3CCCN3Cc3ccccn3)nc3ccccc32)CC1 (stereo not shown) [Compound I-78],IC50,[1],1e-05 to 0.1 µM
same,IC50,[2],≥ 1 µM
Cc1cccnc1C1CCCN1Cc1ncccc1-n1cccn1 (stereo not shown) [Compound I-66],IC50,[1],0.1 to 1 µM
same,IC50,[2],≥ 1 µM
Cc1cccnc1C1CCCN1Cc1nccn1C(=O)N1CCN(C)CC1 (stereo not shown) [Compound I-125],IC50,[1],0.1 to 1 µM
same,IC50,[2],≥ 1 µM
Cc1cccnc1C1CCCN1Cc1nccn1-c1cccnc1 (stereo not shown) [Compound I-114],IC50,[1],0.1 to 1 µM
same,IC50,[2],≥ 1 µM
c1ccc(C2CCCN2Cc2nc3ccccn3c2N2CCN(c3ccncc3)CC2)nc1 (stereo not shown) [Compound I-133],IC50,[1],0.1 to 1 µM
same,IC50,[2],≥ 1 µM
Cc1cccnc1C1CCCN1Cc1nccn1-c1ccccn1 (stereo not shown) [Compound I-113],IC50,[1],≥ 1 µM
same,IC50,[2],≥ 1 µM
OCc1c(CN2CCCC2c2ccccn2)nc2ccccn12 (stereo not shown) [Compound I-93],IC50,[1],0.1 to 1 µM
same,IC50,[2],≥ 1 µM
Cc1cccnc1C1CCCN1C(=O)c1cn2c(N3CCN(C)CC3)cccc2n1 (stereo not shown) [Compound I-74],IC50,[1],≥ 1 µM
same,IC50,[2],≥ 1 µM
Cc1cccnc1C1CCCN1Cc1nc2cccc(N3CCN(C)CC3)c2o1 (stereo not shown) [Compound I-71],IC50,[1],0.1 to 1 µM
same,IC50,[2],≥ 1 µM
Cc1cccnc1C1CCCN1Cc1nccn1-c1ccncc1 (stereo not shown) [Compound I-115],IC50,[1],0.1 to 1 µM
same,IC50,[2],≥ 1 µM
Cc1cccnc1CN1CCCC1c1nc2ccccn2c1N1CCN(C)CC1 (stereo not shown) [Compound I-100],IC50,[1],1e-05 to 0.1 µM
same,IC50,[2],1e-05 to 0.1 µM
c1ccc(C2CCCN2Cc2ncccc2-n2cccn2)nc1 (stereo not shown) [Compound I-67],IC50,[1],≥ 1 µM
same,IC50,[2],≥ 1 µM
Cc1cccnc1C1CCCN1Cc1nc2ccccn2c1CCC#N (stereo not shown) [Compound I-81],IC50,[1],0.1 to 1 µM
same,IC50,[2],≥ 1 µM
